Results: a melting point compilation (Tetko et al.)

| melting point | Structure (SMILES) |
| --- | --- |
| 80 °C | O=P(O)(OCc1ccccc1)OCc1ccccc1 |
| 216 °C | NCCCC1C=NNC1=O (stereo not drawn) |
| 90 to 91 °C | O=C(Cl)c1cccnc1Oc1ccccc1 |
| 230 °C | Cc1nc(/C(C#N)=C/c2ccc(O)cc2)sc1/N=N/c1ccc(Cl)cc1 |
| 104 °C | O=C(Cl)c1csc(Cc2c(Cl)cccc2Cl)n1 |
| 228 to 230 °C | Clc1ccc(C=Nc2n[nH]c(N=Cc3ccc(Cl)cc3)c2Cc2ccc(Cl)cc2)cc1 |
| 43 °C | CC(C)CC(=O)C=Cc1ccccc1 |
| 42 to 46 °C | CC1(C)OCC2OC3OC(C)(C)OC3C2O1 (stereo not drawn) |
| 242 to 250 °C | O=C1Nc2ccc(Cl)cc2C1=O |
| 177 to 181 °C | CC(C)(C)c1cc(C(=O)NN)[nH]n1 |
| 157 °C | CN(C)c1ccn2c(=O)c3ccccc3cc2c1 |
| 33 to 38 °C | CCC1CC(=O)CC(C)(C)N1O (stereo not drawn) |
| 50 °C | CCCCCCCCCCCCCC(O)CC (stereo not drawn) |
| 185 to 190 °C | O=C(O)C1CCC(c2ccccc2)CC1C(=O)O (stereo not drawn) |
| 232 to 234 °C | Cc1nccn1-c1ccccc1C(=O)O |
| 47 °C | COc1cc(Cl)ccc1CO |
| 75.5 °C | IC12CC3CC(CC(C3)C1)C2 |
| 94 °C | O=C(Nc1ccccc1[N+](=O)[O-])C(F)(F)C(F)(F)C(F)(F)C(F)(F)C(F)(F)C(F)(F)C(F)(F)C(F)(F)F |
| 290 to 292 °C | Cc1nc2scc(-c3ccccc3)c2c(=O)n1NC(=O)c1ccc(Cl)cc1Cl |
| 49 °C | c1ccc(Oc2ccccc2-c2ccccc2)cc1 |
| 61 °C | C/C(Cl)=C/C(=O)O |
| 65 to 68 °C | CC(C)[C@H](O)C(=O)O |
| 75 to 76 °C | CC(C)CC1=CC(=Cc2ccc(-c3ccccc3)o2)C(=O)O1 |
| 22 °C | CCCCCCCCCCCCCCCCI |
| 70 °C | CC1CSC(C=Cc2ccccc2[N+](=O)[O-])S1 (stereo not drawn) |

| melting point | Structure (SMILES) |
| --- | --- |
| -90 °C | C=COC(=O)C(CC)CCCC (stereo not drawn) |
| 60 to 62 °C | Nc1cc(C(F)(F)F)cc(Br)c1N |
| 172 to 174 °C | CC(=O)c1cc2cc(Cl)cc(Cl)c2oc1=O |
| 120 °C | O=C(Nc1ccccc1)c1cccnc1 |
| 160 °C | O=C1C=CC(=Nc2ccc(O)cc2)C=C1 |
| 117 °C | O=C(c1ccc(O)cc1)c1ccccc1F |
| 159 °C | CCSc1nnc(NC(=O)C(C(F)(F)F)C(F)(F)F)s1 |
| -105 °C | CCC(Cl)CC |
| 280 °C | Oc1cc(C(F)(F)F)nc2cc(Cl)ccc12 |
| 165 to 167 °C | O=C(O)c1cccnc1Sc1ccccc1 |
| 40 °C | N#CCc1ccc(C(F)(F)F)cc1[N+](=O)[O-] |
| 166 °C | O=C1/C(=C/c2ccccc2O)SC(=S)N1CN1CCOCC1 |
| 40 °C | CCOc1ccccc1C(C)=O |
| 62.1 °C | Cc1cc(O)c(C(C)(C)C)cc1C(C)(C)C |
| 148 to 149 °C | CC(=O)Nc1c(F)ccc([N+](=O)[O-])c1F |
| 135 °C | Cc1c(C)c(C)c(CCl)c(CCl)c1C |
| 40 °C | N#CC1=Cc2ccccc2C1 |
| 139 °C | CCCn1c(C(=O)O)cc2c(=O)n(C)c(=O)n(C)c21 |
| 135 to 136 °C | COC(=O)C1(C(=O)OC)Cc2cc(C)ccc2C(=O)O1 |
| 82 to 84 °C | FC(F)(F)c1cc(C(F)(F)F)[nH]n1 |
| 98 to 99 °C | Cc1nc(-c2ccc(Br)cc2)no1 |
| 100 to 103 °C | Cc1cccc(P(c2cccc(C)c2)c2cccc(C)c2)c1 |
| 130 °C | CCOC(=O)CN(CCCN(CC(=O)OCC)S(=O)(=O)c1ccc(C)cc1)S(=O)(=O)c1ccc(C)cc1 |
| 64 °C | c1ccc(Cc2cc3ccccc3cn2)cc1 |
| 240 °C | Nc1cccc(C(=O)O)c1O |

| melting point | Structure (SMILES) |
| --- | --- |
| 93 °C | N#Cc1ccncc1Br |
| 235 °C | Cn1c(=O)c(C2=NNC(=O)C2=CNc2ccccn2)c(O)c2ccccc21 |
| 250 to 255 °C | O=C(O)C1CCC(c2ccc(Cl)cc2)CC1 (stereo not drawn) |
| 222 to 225 °C | N#Cc1ccc[nH]c1=O |
| 137 °C | CCOC(=O)c1[nH]c(C)c(C(=O)OCC)c1C |
| -1 °C | CCCCCCCCCCCCCC(=O)Cl |
| 228 °C | Cc1cccc2c1/C(=N/Nc1ccc([N+](=O)[O-])cc1[N+](=O)[O-])C2 |
| 86 °C | O=C(Cc1ccccc1)C(=O)Cc1ccccc1 |
| 240 to 243 °C | NC(=O)c1cc(O)c(O)c(O)c1 |
| 221 °C | CCOC(=O)c1nn(-c2ccc(C)cc2)c(C)c1C(=O)C1=NOC2C(=O)N(c3ccc(OC)cc3)C(=O)C12 (stereo not drawn) |
| 128 °C | COc1ccc(C(=O)c2ccc(Cl)cc2Cl)cc1OC |
| 221 °C | CCOC(=O)C1=NN(c2ccccc2)C(=O)C1C(Cl)C1C(=O)N(c2ccccc2)N=C1C(=O)OCC (stereo not drawn) |
| 99.5 to 102 °C | C=CCc1c(N)c(C(C)=O)cc(C(C)=O)c1O |
| -4 °C | CCOc1ccccc1N |
| 256 to 258 °C | CC(=O)N[C@@H](CCCCN)C(=O)O |
| 135 to 137 °C | O=C(O)c1ccc(N2CCOCC2)s1 |
| 130 °C | Cc1ccc(NN=C2C(=O)OC(C)(C)OC2=O)cc1 |
| 50 °C | Cc1nc(CO)cs1 |
| 290 to 292 °C | Cc1c(C(=O)O)sc2ccc(Cl)cc12 |
| 166 °C | O=C(Nc1ccccc1CCc1ccccc1)c1ccccc1 |
| 126 to 128 °C | COC(=O)c1ccc(OC)c(S(=O)(=O)Cl)c1 |
| 79.3 °C | CN(C)C(=S)N(C)C |
| 47 °C | c1ccc(P(CCCCCP(c2ccccc2)c2ccccc2)c2ccccc2)cc1 |
| 300 °C | O=C1C=C(Nc2cccc(O)c2)c2ccccc2C1=O |

| Structure (SMILES) | melting point |
| --- | --- |
| Cc1cc(Cl)ccc1OCCCC(=O)O | 100 °C |
| CCC12CCCN3CCC4(c5cccc(OC)c5N(C(C)=O)C4CC1)C32 (stereo not drawn) | 208 °C |
| CC12CCC3C(CCC45OC4C(=O)C=CC35O)C1CCC2=O (stereo not drawn) | 201 to 203 °C |
| COc1cc2c(cc1O)[C@H](C)N(C)CC2 | 182 °C |
| NC(=O)C(Br)(Br)C(N)=O | 205 °C |
| CCC[N+](=O)[O-] | -108 °C |
| FCC(F)F | -84 °C |
| Cc1c(Cl)c(Cl)c(C)c(Cl)c1Cl | 216 °C |
| CC1OC1P(=O)(O)O (stereo not drawn) | 94 °C |
| ICc1ccccc1 | 24.5 °C |
| Cc1c(C)c([N+](=O)[O-])c(C)c(C)c1[N+](=O)[O-] | 212 °C |
| CC12C=CC(=O)C=C1CCC1C2C(O)CC2(C)C1CCC2(O)C(=O)COC(=O)CCCc1ccc(N(CCCl)CCCl)cc1 (stereo not drawn) | 164 °C |
| CC(=O)C1=CCC2(C)C(CCC3C4CCC(=O)C4(C)CCC32)C1 (stereo not drawn) | 152 to 153 °C |
| O=C=Nc1ccccc1 | -31.3 °C |
| Cc1ccccc1C(=O)Nc1cccc(OC(C)C)c1 | 92.5 °C |
| O=C(Cl)c1cncc(Br)c1 | 84 to 86 °C |
| O=C(CI)OC(=O)CI | 43 to 49 °C |
| c1ccc(P(C2CCCCC2)C2CCCCC2)cc1 | 59.5 °C |
| CC(C)(C)c1ccc(CCOc2ncnc3ccccc23)cc1 | 80.5 °C |
